We go through five molecules from the supplement of paper PMC6004109.

The structures appear in SMILES notation.

Holding throughout (conditions): temperature: 37 °C
Test [1] relates to Candida glabrata ATCC 2001 (YPD). As to the kind of experiment: Bliss independence sum of statistically significant ΔE (measured minus predicted growth inhibition) over checkerboard surface (fraction (sum of ΔE; 1 = 100%)); higher = more synergy.
For test [2] the test system is unchanged. In words: FICI minimum (fractional inhibitory concentration index, Loewe) (dimensionless); higher = less synergy / more antagonism. As for the experimental part: (§1)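 CLSI M27-A3 checkerboard broth microdilution of an immunomodulatory drug (or amoxicillin) combined with an antifungal against S. cerevisiae and C. glabrata isolates. Growth was read as OD600 after incubation at 37 °C (48 h for the reported MICs). Reported quantities are the FICI (Loewe: MIC50 for azoles and immunomodulators, MIC90 for AMB; ≤0.5 synergy, ≥4 antagonism), as minimum and maximum over the surface, and the Bliss-independence sum of statistically significant ΔE (positive = synergy). Clinical isolates were tested in RPMI; C. glabrata ATCC 2001 and its pdr1Δ mutant were tested in YPD.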

Test [3] shares this test system. As to the kind of experiment: FICI maximum (fractional inhibitory concentration index, Loewe) (dimensionless); higher = less synergy / more antagonism. The procedure: as §1
Test [4] concerns Candida glabrata ZIM 2344 (RPMI). As to the kind of experiment: Bliss independence sum of statistically significant ΔE (measured minus predicted growth inhibition) over checkerboard surface (fraction (sum of ΔE; 1 = 100%)); higher = more synergy.
Test [5] relates to Candida glabrata ZIM 2365 (RPMI). The description is as above.
In test [6] the test system is Saccharomyces cerevisiae ZIM 2247 (RPMI). Described as above.
For test [7], the system named is Candida glabrata ZIM 2385 (RPMI). The description is as above.
For test [8], the system named is Candida glabrata ZIM 2389 (RPMI). Described as above.
The test system of test [9] is Saccharomyces cerevisiae ZIM 2269 (RPMI). The description is as above.
In test [10] the test system is Saccharomyces cerevisiae ZIM 2558 (RPMI). The test is described as above.
Test [11] deals with Saccharomyces cerevisiae ZIM 2260 (RPMI). The description is as above.
For test [12], the system named is Saccharomyces cerevisiae ZIM 2255 (RPMI). The description is as above.
For test [13], the system named is Candida glabrata ZIM 2369 (RPMI). The test is described as above.
In test [14] the test system is Candida glabrata ZIM 2382 (RPMI). The description is as above.
Test [15] concerns Candida glabrata ZIM 2344 (RPMI). In words: FICI minimum (fractional inhibitory concentration index, Loewe) (dimensionless); higher = less synergy / more antagonism. As for the experimental part: as §1
Test [16] concerns Candida glabrata ZIM 2365 (RPMI). Described as above. The procedure:
as §1

For test [17], the system named is Saccharomyces cerevisiae ZIM 2247 (RPMI). The description is as above. The procedure: as §1
In test [18] the test system is Candida glabrata ZIM 2385 (RPMI). The test is described as above. The procedure:
as §1

Test [19] concerns Candida glabrata ZIM 2389 (RPMI). The test is described as above. The procedure: as §1
The subject of test [20] is Saccharomyces cerevisiae ZIM 2269 (RPMI). Described as above. The procedure:
as §1

In test [21] the test system is Saccharomyces cerevisiae ZIM 2558 (RPMI). The test is described as above. As for the experimental part: as §1
In test [22] the test system is Saccharomyces cerevisiae ZIM 2260 (RPMI). The test is described as above. As for the experimental part:
as §1

Test [23] has as its system Saccharomyces cerevisiae ZIM 2255 (RPMI). The test is described as above. As for the experimental part: as §1
Test [24] relates to Candida glabrata ZIM 2369 (RPMI). Described as above. The procedure:
as §1

Test [25] relates to Candida glabrata ZIM 2382 (RPMI). The description is as above. The procedure: as §1
In test [26] the test system is Candida glabrata ZIM 2344 (RPMI). In words: FICI maximum (fractional inhibitory concentration index, Loewe) (dimensionless); higher = less synergy / more antagonism. The procedure: as §1
The subject of test [27] is Candida glabrata ZIM 2365 (RPMI). The test is described as above. As for the experimental part: as §1
Test [28] concerns Saccharomyces cerevisiae ZIM 2247 (RPMI). Described as above. As for the experimental part:
as §1

The subject of test [29] is Candida glabrata ZIM 2385 (RPMI). The test is described as above. As for the experimental part: as §1
The test system of test [30] is Candida glabrata ZIM 2389 (RPMI). The description is as above. As for the experimental part: as §1
The subject of test [31] is Saccharomyces cerevisiae ZIM 2269 (RPMI). The description is as above. The procedure:
as §1

In test [32] the test system is Saccharomyces cerevisiae ZIM 2558 (RPMI). The description is as above. As for the experimental part:
as §1

In test [33] the test system is Saccharomyces cerevisiae ZIM 2260 (RPMI). Described as above. The procedure:
as §1

The test system of test [34] is Saccharomyces cerevisiae ZIM 2255 (RPMI). The description is as above. As for the experimental part: as §1
For test [35], the system named is Candida glabrata ZIM 2369 (RPMI). The description is as above. The procedure:
as §1

The test system of test [36] is Candida glabrata ZIM 2382 (RPMI). The test is described as above. The procedure: as §1
In test [37] the test system is Saccharomyces cerevisiae ZIM 2566 (RPMI). As to the kind of experiment: Bliss independence sum of statistically significant ΔE (measured minus predicted growth inhibition) over checkerboard surface (fraction (sum of ΔE; 1 = 100%)); higher = more synergy.
Test [38] has the same test system. In words: FICI minimum (fractional inhibitory concentration index, Loewe) (dimensionless); higher = less synergy / more antagonism. The procedure: as §1
Test [39] has the same test system. As to the kind of experiment: FICI maximum (fractional inhibitory concentration index, Loewe) (dimensionless); higher = less synergy / more antagonism. As for the experimental part: as §1

Consider `COc1c(C)c2c(c(O)c1C/C=C(\C)CCC(=O)O)C(=O)OC2` [mycophenolic acid] + CC(=O)N1CCN(c2ccc(OCC3COC(Cn4ccnc4)(c4ccc(Cl)cc4Cl)O3)cc2)CC1 [ketoconazole], for which the Bliss independence sum in test [1] is -2.13. The FICI minimum in test [2] came to 1.25. In addition, in test [3], the FICI maximum was found to be 4.12.

`COc1c(C)c2c(c(O)c1C/C=C(\C)CCC(=O)O)C(=O)OC2` [mycophenolic acid] + CC[C@@H]([C@H](C)O)n1ncn(-c2ccc(N3CCN(c4ccc(OC[C@@H]5CO[C@@](Cn6cncn6)(c6ccc(F)cc6F)C5)cc4)CC3)cc2)c1=O [posaconazole]: the Bliss independence sum in [1] was -3.21. Moreover, in [2], the FICI minimum is 1.5. Also, the FICI maximum in test [3] was determined as 4.12.

Turning to `COc1c(C)c2c(c(O)c1C/C=C(\C)CCC(=O)O)C(=O)OC2` [mycophenolic acid] + C[C@@H](c1ncncc1F)[C@](O)(Cn1cncn1)c1ccc(F)cc1F [voriconazole], in test [1], the Bliss independence sum was -2.31. In [2], the FICI minimum is 1.06. Moreover, in test [3], the FICI maximum came to 2.5.

In the case of `COc1c(C)c2c(c(O)c1C/C=C(\C)CCC(=O)O)C(=O)OC2` [mycophenolic acid] + CCC(C)n1ncn(-c2ccc(N3CCN(c4ccc(OCC5COC(Cn6cncn6)(c6ccc(Cl)cc6Cl)O5)cc4)CC3)cc2)c1=O [itraconazole], the Bliss independence sum in [4] is 10; in test [5], 0.327; in test [6], -0.0362; in [7] it was 3.12; in test [8] it was 4.83; in test [9], 0.69. Also, the Bliss independence sum in test [10] was -4.07; in test [11], -2.11; in test [12], 2.31; in test [13], -0.825; in test [14], 0.427. For the same molecule, the FICI minimum in test [15] came to 0.174; in test [16], 0.516; in test [17] it was 1.02; in [18] it was 0.508; in [19], 0.508; in test [20] it was 1.03. Further, the FICI minimum in [21] turned out to be 2.01; in test [22] it was 1; in test [23], 0.517; in [24], 1.01; in test [25] it was 0.508. For the same molecule, the FICI maximum in [26] stood at 1.62; in [27], 4.12; in test [28], 2.53; in test [29] it was 1.02; in test [30] it was 1.25; in [31], 1.25. Besides, the FICI maximum stood at 4.25 in test [32]; 2.16 in [33]; 1.13 in test [34]; 2.25 in test [35]; 0.75 in test [36].

As for `CC1(C)S[C@@H]2[C@H](NC(=O)[C@H](N)c3ccc(O)cc3)C(=O)N2[C@H]1C(=O)O` [amoxicillin] + OC(Cn1cncn1)(Cn1cncn1)c1ccc(F)cc1F [fluconazole], the Bliss independence sum in test [4] is 0.963; in test [5], -0.019; in test [6] it was -1.44; in test [7], 1.92; in test [8] it was 2.98; in [37] it was 0.455. Further, the Bliss independence sum is -1.87 in test [9]; 1.93 in [10]; -2.93 in [12]; 1.02 in test [13]; 0.34 in test [14]. Also, the FICI minimum in [15] was 0.508; in test [16], 1.01; in [17], 1.02; in test [18] it was 1.02; in test [19], 1.02; in test [38] it was 0.516. Besides, the FICI minimum worked out at 1.03 in [20]; 0.508 in test [21]; 2.01 in test [23]; 1.01 in test [24]; 1.01 in test [25]. Further, the FICI maximum was found to be 0.75 in test [26]; 1.25 in test [27]; 2.12 in test [28]; 1.5 in test [29]; 2.25 in test [30]; 1.25 in [39]. The FICI maximum in [31] amounted to 2; in test [32], 1.25; in test [34], 2.12; in test [35] it was 1.25; in test [36] it was 1.25.
